In patent US10363239B2, “Method for inhibiting growth of cancer cells” (Pain Therapeutics, Inc., priority 2013, dated 2019):
Where two headings read alike, the source gives them in different places.

How the values were obtained:
[1] = molecular target: FLNA pentapeptide of SEQ ID NO: 1 (Bn-VAKGL) (Homo sapiens, UniProt P21333); experiment: FITC-NLX-based FLNA screening assay (inhibition of FITC-naloxone binding to Bn-VAKGL on streptavidin plates); details: for inhibition at 0.01 µM / inhibition at 0.1 µM / inhibition at 1 µM: 10 nM FITC-NLX
mu opiate receptor (MOR) = experiment: MOR agonist activity using [35S]GTPγS binding assay in striatal membranes; assay type: biochemical; details: for MOR agonist activity ([35S]GTPγS binding), FLNA-Binding Compound as Agonist 1 μM + BFNA: 1 μM compound + 1 μM β-funaltrexamine
Outline: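 Striatal membranes (200 μg) were preincubated 5 min at 30 °C in HEPES pH 7.5 with 100 mM NaCl, 1 mM MgCl2 and 0.5 nM [35S]GTPγS, then 5 min more with 0.1–10 μM compound. Gαo was immunoprecipitated and bound radioactivity counted by scintillation.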

[2] = read-out: Percent Binding Inhibition, FLNA-binding compound 0.01 μM
[3] = read-out: Percent Binding Inhibition, FLNA-binding compound 0.1 μM
[4] = read-out: Percent Binding Inhibition, FLNA-binding compound 1 μM
[5] = Series B, 0.1 μM compound, relative to DAMGO
[6] = Series B, 0.1 μM compound, [35S]GTPγS binding to Gαo, striatal membranes
[7] = Series B, 1 μM compound + 1 μM β-FNA
[8] = Series B, 1 μM compound + β-FNA, relative to DAMGO + BFNA
[9] = Series B, 1 μM compound, relative to DAMGO
[10] = Series B, 1 μM compound, [35S]GTPγS binding to Gαo, striatal membranes
[11] = FLNA-binding compound 0.01 μM, read-out: Percent Binding Inhibition
[12] = FLNA-binding compound 0.1 μM, read-out: Percent Binding Inhibition
[13] = FLNA-binding compound 1 μM, read-out: Percent Binding Inhibition
[14] = Series C-2, 0.1 μM compound, relative to DAMGO
[15] = Series C-2, 0.1 μM compound, [35S]GTPγS binding to Gαo, striatal membranes
[16] = Series C-2, 1 μM compound + 1 μM β-FNA
[17] = Series C-2, 1 μM compound + β-FNA, relative to DAMGO + BFNA
[18] = Series C-2, 1 μM compound, relative to DAMGO
[19] = Series C-2, 1 μM compound, [35S]GTPγS binding to Gαo, striatal membranes
[20] = 0.1 μM compound relative to DAMGO
[21] = 1 μM compound + BFNA relative to DAMGO + BFNA
[22] = 1 μM compound relative to DAMGO

SMILES	inhibition at 0.01 µM [1, 2]	inhibition at 0.1 µM [1, 3]	inhibition at 1 µM [1, 4]	inhibition at 0.01 µM [1, 11]	inhibition at 0.1 µM [1, 12]	inhibition at 1 µM [1, 13]	% DAMGO (0.1 μM) (mu opiate receptor (MOR); [14])	MOR agonist activity, percent [35S]GTPγS binding at the stated compound concentration (mu opiate receptor (MOR); [15])	MOR agonist activity, percent [35S]GTPγS binding at the stated compound concentration (mu opiate receptor (MOR); [16])	% DAMGO + BFNA (mu opiate receptor (MOR); [17])	% DAMGO (1 μM) (mu opiate receptor (MOR); [18])	MOR agonist activity, percent [35S]GTPγS binding at the stated compound concentration (mu opiate receptor (MOR); [19])	other results
COc1cc(C(=O)CC2c3c(cc4c(c3OC)OCO4)CC[N+]2(C)C)cc(OC)c1OC (centres unmarked) [Compound B0037]	47.4%	53%	52.4%	–	–	–	–	–	–	–	–	–	% DAMGO (0.1 μM) (mu opiate receptor (MOR); [5]): 76.5%; MOR agonist activity, percent [35S]GTPγS binding at the stated compound concentration (mu opiate receptor (MOR); [6]): 119.8%; MOR agonist activity, percent [35S]GTPγS binding at the stated compound concentration (mu opiate receptor (MOR); [7]): 106.2%; % DAMGO + BFNA (mu opiate receptor (MOR); [8]): 325.8%; % DAMGO (1 μM) (mu opiate receptor (MOR); [9]): 80.4%; MOR agonist activity, percent [35S]GTPγS binding at the stated compound concentration (mu opiate receptor (MOR); [10]): 186.0%
COc1ccc(S(=O)(=O)N2CCC3(CC2)NCCO3)cc1 [Compound C0026]	–	–	–	42.3%	44.8%	49%	107.7%	207.2%	21.2%	48.3%	105.6%	288.4%	–
CC(=O)N1CCSC12CCN(S(=O)(=O)c1ccc([N+](=O)[O-])cc1)CC2 [Compound C0050]	–	–	–	26.7%	34.5%	36.4%	76.1%	110.3%	59.0%	134.1%	54.8%	127.6%	–
CC1CN(CC(O)COc2ccc(Br)c(F)c2)CC(C)O1 (centres unmarked) [Compound A0041]	45.8%	51.7%	56.9%	–	–	–	–	–	–	–	–	–	MOR agonist activity ([35S]GTPγS binding), FLNA-Binding Compound as Agonist 0.1 μM (mu opiate receptor (MOR); 0.1 μM compound): 212.7%; % DAMGO (0.1 μM) (mu opiate receptor (MOR); [20]): 108.4%; MOR agonist activity ([35S]GTPγS binding), FLNA-Binding Compound as Agonist 1 μM (mu opiate receptor (MOR); 1 μM compound): 283.6%; MOR agonist activity ([35S]GTPγS binding), FLNA-Binding Compound as Agonist 1 μM + BFNA (mu opiate receptor (MOR)): 50.6%; % DAMGO + BFNA (mu opiate receptor (MOR); [21]): 68.5%; % DAMGO (1 μM) (mu opiate receptor (MOR); [22]): 102.8%
COc1c2c(cc3c1C(CC(=O)c1ccc(O)c(C)c1)[N+](C)(C)CC3)OCO2 (centres unmarked) [Compound B0002]	40.2%	46.4%	55%	–	–	–	–	–	–	–	–	–	% DAMGO (0.1 μM) (mu opiate receptor (MOR); [5]): 100.0%; MOR agonist activity, percent [35S]GTPγS binding at the stated compound concentration (mu opiate receptor (MOR); [6]): 165.7%; MOR agonist activity, percent [35S]GTPγS binding at the stated compound concentration (mu opiate receptor (MOR); [7]): 101.4%; % DAMGO + BFNA (mu opiate receptor (MOR); [8]): 156.0%; % DAMGO (1 μM) (mu opiate receptor (MOR); [9]): 81.1%; MOR agonist activity, percent [35S]GTPγS binding at the stated compound concentration (mu opiate receptor (MOR); [10]): 219.0%
CC(=O)c1ccc(S(=O)(=O)N2CC(=O)NC23CCNCC3)cc1 [Compound C0086M]	37.9%	48.1%	53.4%	–	–	–	117.5%	206.8%	152.3%	692.3%	104.9%	265.3%	–
Cc1ccc(S(=O)(=O)N2CCOC23CCN(CC2CCC2)CC3)cc1 [Compound 9]	–	–	–	–	–	–	–	–	–	–	–	–	Binding to FLNA (conclusion in words) ([1]; preliminary study): bind well to FLNA; MOR agonist activity, FLNA-Binding Compound as Agonist 0.1 μM (preliminary study) (mu opiate receptor (MOR); 0.1 μM, average of two runs): 156.6%; MOR agonist activity, FLNA-Binding Compound as Agonist 1 μM + βNFA (preliminary study) (mu opiate receptor (MOR); 1 μM + βNFA, average of two runs): 56.6%; MOR agonist activity, FLNA-Binding Compound as Agonist 1 μM (preliminary study) (mu opiate receptor (MOR); 1 μM, average of two runs): 197.2%; MOR agonist activity (conclusion in words) (mu opiate receptor (MOR); preliminary study): MOR agonists
CC1CCC(C(C)C)C(OCC(O)CN2CCc3ccccc3C2)C1 (centres unmarked) [Compound A0040]	45%	50.4%	56.3%	–	–	–	–	–	–	–	–	–	MOR agonist activity ([35S]GTPγS binding), FLNA-Binding Compound as Agonist 0.1 μM (mu opiate receptor (MOR); 0.1 μM compound): 46.1%; % DAMGO (0.1 μM) (mu opiate receptor (MOR); [20]): 23.5%; MOR agonist activity ([35S]GTPγS binding), FLNA-Binding Compound as Agonist 1 μM (mu opiate receptor (MOR); 1 μM compound): 149.0%; MOR agonist activity ([35S]GTPγS binding), FLNA-Binding Compound as Agonist 1 μM + BFNA (mu opiate receptor (MOR)): 16.7%; % DAMGO + BFNA (mu opiate receptor (MOR); [21]): 22.6%; % DAMGO (1 μM) (mu opiate receptor (MOR); [22]): 54.0%
COc1ccc(S(=O)(=O)N2CCCC3(C2)OCCN3S(=O)(=O)c2ccc(OC)cc2)cc1 (centres unmarked) [Compound C0145M]	–	–	–	45.1%	53.7%	58.3%	–	–	–	–	–	–	% DAMGO (0.1 μM) (mu opiate receptor (MOR); Series C-1, 0.1 μM compound, relative to DAMGO): 112.2%; Concentration of FLNA-Binding Compound as Agonist 0.1 μM (mu opiate receptor (MOR); Series C-1, 0.1 μM compound, [35S]GTPγS binding to Gαo, striatal membranes): 193.0%; Concentration of FLNA-Binding Compound as Agonist 1 μM + BFNA (mu opiate receptor (MOR); Series C-1, 1 μM compound + 1 μM β-FNA): 87.0%; % DAMGO + BFNA (mu opiate receptor (MOR); Series C-1, 1 μM compound + β-FNA, relative to DAMGO + BFNA): 95.3%; % DAMGO (1 μM) (mu opiate receptor (MOR); Series C-1, 1 μM compound, relative to DAMGO): 88.7%; Concentration of FLNA-Binding Compound as Agonist 1 μM (mu opiate receptor (MOR); Series C-1, 1 μM compound, [35S]GTPγS binding to Gαo, striatal membranes): 289.2%
